This note sets out measurements from patent US20120165331A1, “Di/tri-aza-spiro-C9-C11alkanes” (priority 2010, published 2012).

As usually defined, the Ki is a dissociation constant, usually derived from enzyme kinetics or from competition with a known ligand. The term inhibition denotes the relative decrease from the control value, in per cent.

The target of one test is T1, human orexin 2 receptor (Homo sapiens, UniProt O43614).
T1 construct: expressed in transfected cells
T1 sequence (O43614 1-444): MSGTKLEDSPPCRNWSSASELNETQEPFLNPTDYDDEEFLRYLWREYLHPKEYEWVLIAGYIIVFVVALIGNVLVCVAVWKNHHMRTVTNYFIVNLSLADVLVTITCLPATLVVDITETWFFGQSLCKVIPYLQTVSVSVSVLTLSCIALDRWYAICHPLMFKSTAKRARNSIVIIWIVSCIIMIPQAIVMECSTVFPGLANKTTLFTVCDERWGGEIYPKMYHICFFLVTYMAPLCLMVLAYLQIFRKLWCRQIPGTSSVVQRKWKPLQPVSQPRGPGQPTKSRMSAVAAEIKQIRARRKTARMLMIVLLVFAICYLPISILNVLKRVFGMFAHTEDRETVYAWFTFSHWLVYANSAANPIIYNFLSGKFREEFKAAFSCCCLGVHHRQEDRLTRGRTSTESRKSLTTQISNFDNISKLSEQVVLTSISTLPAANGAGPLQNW
Description: Calcium accumulation in cells (FLIPR), antagonism of orexin A, human orexin 2 receptor. Format: cell-based. To be noted: for Ki: calcium accumulation, antagonism of orexin A, Cheng-Prusoff corrected, read-out: FLIPR hOx2R Ki; for inhibition at 10 µM: measured at a concentration of 10 μM of compound, read-out: FLIPR hOx2R % inhibition. On the procedure: (§1) Calcium Accumulation in Cells (FLIPR):
(§2) Cells expressing human orexin 1 or human orexin 2 receptors, were seeded at 8,000 cells/well in 384 well black-walled clear bottom, poly-D-lysine coated plates. After 24 h, the medium was removed and cells were washed once with phosphate buffered saline and serum-deprived overnight in assay buffer (130 mM NaCl, 5.4 mM KCl, 1.8 mM CaCl2, 0.8 mM MgSO4, 0.9 mM NaH2PO4, 25 mM glucose, 20 mM HEPES, pH 7.4) containing bovine serum albumin (1% w/v).
(§3) On the day of the experiment, the cells seeded in black plates were treated with assay buffer containing the Ca^2+ sensitive fluorescent dye Fluo-4-AM (2 μM), and probenecid (0.1 mM). After 1 h plates were washed twice with, and resuspended in, assay buffer containing probenecid (0.1 mM) using a multi plate washer. The plates were placed into a FLIPR II (Fluorometric Imaging Plate Reader, Molecular Devices, Sunnyvale, Calif., USA) and baseline fluorescence (fluorescence light units, FLU) was measured (5 measurements, 2 S each; laser excitation 488 nm at 0.6-1 W, CCD camera exposure 0.4 s) before addition of buffer alone (basal) or containing test compounds (either compound of formula I alone, agonist alone or agonist in the presence of various concentrations of compounds of formula I). Fluorescence measurements were then continued every 1 S for 120 S followed by every 4 S for 240 S.
(§4) The measurements were typically made in two sequences:
(§5) Compounds of formula I were tested usually in a concentration range from 10^−9 M to 10^−5 M.
(§6) In the second round, performed one hour later (to allow for equilibration), Orexin A was tested either in the absence (calibration curves, Orexin A agonist controls) or in the presence of compounds of formula Ito determine antagonism.
(§7) Inhibition data is expressed in Table 1 as Kd [μM], converted by the Cheng and Prusoff correction (Kd=IC50/1+(L/EC50)), where IC50 is the 50% inhibition value determined in concentration response inhibition curves, EC50 is the half maximal activation concentration determined for orexin A in concentration response curves and L is the concentration of orexin A used in inhibition experiments performed in with a submaximal concentration of orexin A in the presence of up to 8 increasing concentrations of compound of formula I. Inhibition data is also expressed in Table 1 as % inhibition value measured at a concentration of 10 μM of selected compounds of formula I.

A further test concerns the target T2, human orexin 1 receptor (Homo sapiens, UniProt O43613).
T2 construct: expressed in transfected cells
T2 sequence (O43613 1-425): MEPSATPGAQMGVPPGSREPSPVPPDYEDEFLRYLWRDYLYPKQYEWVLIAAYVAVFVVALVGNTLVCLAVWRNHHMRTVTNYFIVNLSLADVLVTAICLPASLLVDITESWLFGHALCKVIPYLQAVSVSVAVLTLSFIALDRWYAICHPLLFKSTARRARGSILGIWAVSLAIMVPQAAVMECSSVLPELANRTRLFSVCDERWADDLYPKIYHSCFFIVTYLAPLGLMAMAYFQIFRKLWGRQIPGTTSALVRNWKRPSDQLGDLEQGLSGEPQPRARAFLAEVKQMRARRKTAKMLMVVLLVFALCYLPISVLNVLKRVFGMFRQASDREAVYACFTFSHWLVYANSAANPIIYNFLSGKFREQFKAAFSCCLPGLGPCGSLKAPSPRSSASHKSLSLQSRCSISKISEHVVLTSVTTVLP
Put plainly: Calcium accumulation in cells (FLIPR), antagonism of orexin A, human orexin 1 receptor. Format: cell-based. The following applies: for inhibition at 10 µM: measured at a concentration of 10 μM of compound, read-out: FLIPR hOx1R % inhibition; for Ki: calcium accumulation, antagonism of orexin A, Cheng-Prusoff corrected, read-out: FLIPR hOx1R Ki. Here is the method: as §1, §2, §3, §4, §5, §6, §7

The structures appear in SMILES notation. A value given as a limit tells only on which side of the number the result lay.

For `Cc1cc(C)nc(N2CCC3(CC2)NCCN(Cc2nn(C)cc2-c2ccccc2)C3=O)n1` [Example 1.3, 9-(4,6-Dimethyl-pyrimidin-2-yl)-4-(1-methyl-4-phenyl-1H-pyrazol-3-ylmethyl)-1,4,9-triaza-spiro[5.5]undecan-5-on], the Ki at human orexin 2 receptor amounted to 334 nM. The inhibition at 10 µM at human orexin 1 receptor turned out to be 35%.

As for `Cc1cccc(-c2cn(C)nc2CN2CCNC3(CCN(c4nc(C)cc(C)n4)CC3)C2=O)c1` [Example 1.38, 9-(4,6-Dimethyl-pyrimidin-2-yl)-4-((1-methyl-4-(m-tolyl)-1H-pyrazol-3-yl)methyl)-1,4,9-triazaspiro[5.5] undecan-5-one], on human orexin 2 receptor, the Ki worked out at 204 nM. Moreover, the inhibition at 10 µM at human orexin 1 receptor turned out to be 29%.

On to `O=C1N(Cc2c[nH]c3ccccc23)CCC12CCN(c1ncc3cc(F)ccc3n1)C2` (stereo not shown) [Example 5.16, 2-((1H-Indol-3-yl)methyl)-7-(6-fluoroquinazolin-2-yl)-2,7-diazaspiro[4.4]nonan-1-one], for which the Ki at human orexin 2 receptor is 509 nM; at human orexin 1 receptor it was 1120 nM.

With `COc1cc(C)nc(N2CCC3(CCN(Cc4c[nH]c5ncccc45)C3=O)CC2)n1` [Example 3.22, 2-((1H-pyrrolo[2,3-b]pyridin-3-yl)methyl)-8-(4-methoxy-6-methylpyrimidin-2-yl)-2,8-diazaspiro[4.5]decan-1-one], the Ki on human orexin 2 receptor came to 246 nM. Besides, on human orexin 1 receptor, the inhibition at 10 µM was determined as 24%.

For the molecule `Cc1cnc(N2CCC3(CC2)OCCN(Cc2c[nH]c4ccccc24)C3=O)nc1C` [Example 2.24, 4-((1H-indol-3-yl)methyl)-9-(4,5-dimethylpyrimidin-2-yl)-1-oxa-4,9-diazaspiro[5.5]undecan-5-one], the Ki was 182 nM on human orexin 2 receptor and 1650 nM at human orexin 1 receptor.

Regarding `Cc1cc(N2CCC3(CCN(Cc4c[nH]c5ccccc45)C3=O)C2)nc(C)n1` (stereo not shown) [Example 5.31, 2-((1H-indol-3-yl)methyl)-7-(2,6-dimethylpyrimidin-4-yl)-2,7-diazaspiro[4.4]nonan-1-one], the inhibition at 10 µM on human orexin 2 receptor was 24%; on human orexin 1 receptor, less than 10%.

As to `Cc1cc(C)nc(N2CCC3(CC2)NCCN(Cc2nn(C)cc2-c2cccc(-n4cccn4)c2)C3=O)n1` [Example 1.57, 4-((4-(3-(1H-Pyrazol-1-yl)phenyl)-1-methyl-1H-pyrazol-3-yl)methyl)-9-(4,6-dimethyl-pyrimidin-2-yl)-1,4,9-triazaspiro[5.5] undecan-5-one], the Ki on human orexin 2 receptor was 175 nM; at human orexin 1 receptor it was 2670 nM.

Regarding `Cc1cc(C)nc(N2CCC3(CC2)NCCN(Cc2nn(C)cc2-c2cccc(-n4nc(C)cc4C)c2)C3=O)n1` [Example 1.60, 4-((4-(3-(3,5-Dimethyl-1H-pyrazol-1-yl)phenyl)-1-methyl-1H-pyrazol-3-yl)methyl)-9-(4,6-dimethylpyrimidin-2-yl)-1,4,9-triazaspiro[5.5] undecan-5-one], the inhibition at 10 µM was found to be 34% on human orexin 2 receptor and 13% on human orexin 1 receptor.

With `Cc1cc(C)nc(N2CCC3(CC2)COC(=O)N3Cc2c[nH]c3ccccc23)n1` [Example 8.24, 1-((1H-Indol-3-yl)methyl)-8-(4,6-dimethylpyrimidin-2-yl)-3-oxa-1,8-diazaspiro[4.5]decan-2-one], the Ki at human orexin 2 receptor stood at 448 nM. In addition, the inhibition at 10 µM on human orexin 1 receptor came out at 21%.

Regarding `Cc1cc(C)nc(N2CCC3(CC2)OCCN(Cc2ccccc2-c2ccco2)C3=O)n1` [Example 2.3, 9-(4,6-Dimethyl-pyrimidin-2-yl)-4-(2-furan-2-yl-benzyl)-1-oxa-4,9-diaza-spiro[5.5]undecan-5-one], the values for the Ki at human orexin 2 receptor and at human orexin 1 receptor were 142 nM and 1100 nM, respectively.

Take `COc1cc(OC)cc(-c2cn(C)nc2CN2CCNC3(CCN(c4nc(C)cc(C)n4)CC3)C2=O)c1` [Example 1.37, 4-((4-(3,5-Dimethoxyphenyl)-1-methyl-1H-pyrazol-3-yl)methyl)-9-(4,6-dimethylpyrimidin-2-yl)-1,4,9-triazaspiro[5.5] undecan-5-one]: the Ki at human orexin 2 receptor was 2330 nM. For the same molecule, the inhibition at 10 µM on human orexin 1 receptor worked out at 40%.

Regarding `Cc1cc(C)nc(N2CCC3(CC2)OCCN(Cc2c(-c4ccccc4)nnn2C)C3=O)n1` [Example 2.15, 9-(4,6-Dimethylpyrimidin-2-yl)-4-((1-methyl-4-phenyl-1H-1,2,3-triazol-5-yl)methyl)-1-oxa-4,9-diazaspiro[5.5]undecan-5-one], the Ki at human orexin 2 receptor turned out to be 2160 nM. Further, at human orexin 1 receptor, the inhibition at 10 µM was determined as 10%.

Consider `COc1cc(C)nc(N2CCC3(CCN(Cc4ccccc4-c4nc(C)no4)C3=O)C2)n1` (stereo not shown) [Example 5.42, 7-(4-methoxy-6-methylpyrimidin-2-yl)-2-(2-(3-methyl-1,2,4-oxadiazol-5-yl)benzyl)-2,7-diazaspiro[4.4]nonan-1-one], for which the Ki at human orexin 2 receptor was 180 nM; at human orexin 1 receptor, 1950 nM.

Take `Cc1cc(C)nc(N2CCC3(CC2)NCCN(Cc2conc2-c2ccccc2)C3=O)n1` [Example 1.82, 9-(4,6-dimethyl-pyrimidin-2-yl)-4-((3-phenyl-isoxazol-4-yl)methyl)-1,4,9-triazaspiro[5.5] undecan-5-one]: the Ki at human orexin 2 receptor worked out at 655 nM. Also, the inhibition at 10 µM on human orexin 1 receptor amounted to 57%.

As for `Cc1cc(C)nc(N2CCC3(CCN(Cc4c[nH]c5ccccc45)C3=O)C2)c1` (stereo not shown) [Example 5.29, 2-((1H-indol-3-yl)methyl)-7-(4,6-dimethylpyridin-2-yl)-2,7-diazaspiro[4.4]nonan-1-one], the values for the Ki on human orexin 2 receptor and at human orexin 1 receptor were 114 nM and 1490 nM, respectively.

As for `O=C1N(Cc2c[nH]c3ccccc23)CCC12CCN(c1nccc(-n3ccnc3)n1)C2` (stereo not shown) [Example 5.18, 7-(4-(1H-imidazol-1-yl)pyrimidin-2-yl)-2-((1H-indol-3-yl)methyl)-2,7-diazaspiro[4.4]nonan-1-one], the values for the Ki at human orexin 2 receptor and on human orexin 1 receptor were 1240 nM and 1890 nM, respectively.

As to `COc1cccc(-c2n[nH]nc2CN2CCC3(CCN(c4nccc(OC)n4)C3)C2=O)c1` (stereo not shown) [Example 5.14, 2-((5-(3-Methoxyphenyl)-2H-1,2,3-triazol-4-yl)methyl)-7-(4-methoxypyrimidin-2-yl)-2,7-diazaspiro[4.4]nonan-1-one], the Ki at human orexin 2 receptor was found to be 146 nM; on human orexin 1 receptor, 544 nM.

For the molecule `O=C1N(Cc2ccccc2-c2ccccc2)CCC12CCN(c1nc3ccccc3[nH]1)CC2` [Example 3.9, 8-(1H-Benzo[d]imidazol-2-yl)-2-(biphenyl-2-ylmethyl)-2,8-diazaspiro[4.5]decan-1-one], the figures for the Ki at human orexin 2 receptor and at human orexin 1 receptor were 731 nM and 343 nM, respectively.

Take `Cc1cc(C)nc(N2CCC3(CC2)NCCN(Cc2nn(C)cc2-c2ccc(C#N)cc2)C3=O)n1` [Example 1.45, 4-(3-((9-(4,6-Dimethylpyrimidin-2-yl)-5-oxo-1,4,9-triazaspiro[5.5]undecan-4-yl)methyl)-1-methyl-1H-pyrazol-4-yl)benzonitrile]: the figures for the inhibition at 10 µM at human orexin 2 receptor and on human orexin 1 receptor were 45% and 21%, respectively.

Consider `COc1ccnc(N2CCC3(CC2)NCCN(Cc2nc(C)oc2-c2ccccc2)C3=O)n1` [Example 1.22, 9-(4-Methoxy-pyrimidin-2-yl)-4-((2-methyl-5-phenyloxazol-4-yl)methyl)-1,4,9-triazaspiro[5.5] undecan-5-one], for which, at human orexin 2 receptor, the inhibition constant Ki amounted to 1020 nM. In addition, the inhibition at 10 µM at human orexin 1 receptor stood at 19%.
